Each structure is given as a SMILES string.

The experiment in a line: Western blot analysis for "B" compounds. It is filed as cell-based. The conditions noted are these: read-out: Traditional Western Degradation Potency (DC50). The gist of the method:
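Target protein levels given as relative mean band intensity over GAPDH from scanned immunoblots. Lysates of treated cells in RIPA buffer, equalized by BCA, separated on 10% gels and transferred to PVDF.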
In general terms: In western blotting, separated proteins are transferred to a membrane and probed.
As usually defined, the DC50 is the concentration giving 50% degradation. With `CN(c1ccc([C@@H]2c3ccc(O)cc3CC[C@@H]2c2ccccc2)cc1)C1CN([C@H]2CC[C@H](C(=O)N3Cc4cc5c(cc4C3)C(=O)N(C3CCC(=O)NC3=O)C5=O)CC2)C1` (stereo partly drawn) [Compound B130, 2-(2,6-dioxopiperidin-3-yl)-6-((1R,4r)-4-(3-((4-((1R,2S)-6-hydroxy-2-phenyl-1,2,3,4-tetrahydronaphthalen-1-yl)phenyl)(methyl)amino)azetidin-1-yl)cyclohexane-1-carbonyl)-6,7-dihydropyrrolo[3,4-f]isoindole-1,3(2H,5H)-dione], the 50% degradation concentration (DC50) was above 100 nM.
On to `O=C1CCC(N2C(=O)c3cc4c(cc3C2=O)CN(CC(=O)N2CC3(C2)CN(c2ccc([C@@H]5c6ccc(O)cc6CC[C@@H]5c5ccccc5)cc2)C3)C4)C(=O)N1` (mixture of isomers) [Compound B4, 2-(2,6-dioxopiperidin-3-yl)-6-(2-(6-(4-((1R,2S)-6-hydroxy-2-phenyl-1,2,3,4-tetrahydronaphthalen-1-yl)phenyl)-2,6-diazaspiro[3.3]heptan-2-yl)-2-oxoethyl)-6,7-dihydropyrrolo[3,4-f]isoindole-1,3(2H,5H)-dione], for which the DC50 was 10 to 100 nM.
For `CN(C1CCC(CN2Cc3cc4c(cc3C2)C(=O)N(C2CCC(=O)NC2=O)C4=O)CC1)C1CCN(c2ccc([C@@H]3c4ccc(O)cc4CC[C@@H]3c3ccccc3)cc2)CC1` (stereo partly drawn) [Compound B75, 2-(2,6-dioxopiperidin-3-yl)-6-((4-((1-(4-((1R,2S)-6-hydroxy-2-phenyl-1,2,3,4-tetrahydronaphthalen-1-yl)phenyl)piperidin-4-yl)(methyl)amino)cyclohexyl)methyl)-6,7-dihydropyrrolo[3,4-f]isoindole-1,3(2H,5H)-dione], the 50% degradation concentration (DC50) was above 100 nM.
Then `O=C1CCC(N2C(=O)c3cc4c(cc3C2=O)CN(CC(=O)N2CCC3(CC2)CCN(c2ccc([C@H]5c6ccc(O)cc6CC[C@H]5c5ccccc5)cc2)CC3)C4)C(=O)N1` (stereo partly drawn) [Compound B180, 2-(2,6-dioxopiperidin-3-yl)-6-(2-(9-(4-((1S,2R)-6-hydroxy-2-phenyl-1,2,3,4-tetrahydronaphthalen-1-yl)phenyl)-3,9-diazaspiro[5.5]undecan-3-yl)-2-oxoethyl)-6,7-dihydropyrrolo[3,4-f]isoindole-1,3(2H,5H)-dione], with above 100 nM; and `O=C1CCC(N2C(=O)c3cc4c(cc3C2=O)CN(CC2CCC3(CC2)CN(C(=O)c2ccc([C@@H]5c6ccc(O)cc6CC[C@@H]5c5ccccc5)cc2)C3)C4)C(=O)N1` (stereo partly drawn) [Compound B288, 2-(2,6-dioxopiperidin-3-yl)-6-((2-(4-((1R,2S)-6-hydroxy-2-phenyl-1,2,3,4-tetrahydronaphthalen-1-yl)benzoyl)-2-azaspiro[3.5]nonan-7-yl)methyl)-6,7-dihydropyrrolo[3,4-f]isoindole-1,3(2H,5H)-dione], with above 100 nM; and `O=C1CCC(N2C(=O)c3cc4c(cc3C2=O)CN(CC2(F)CCN(C(=O)C3CN(c5ccc([C@@H]6c7ccc(O)cc7CC[C@@H]6c6ccccc6)cc5)C3)CC2)C4)C(=O)N1` (stereo partly drawn) [Compound B262, 2-(2,6-dioxopiperidin-3-yl)-6-((4-fluoro-1-(1-(4-((1R,2S)-6-hydroxy-2-phenyl-1,2,3,4-tetrahydronaphthalen-1-yl)phenyl)azetidine-3-carbonyl)piperidin-4-yl)methyl)-6,7-dihydropyrrolo[3,4-f]isoindole-1,3(2H,5H)-dione], with above 100 nM.
On to `O=C1CCC(N2C(=O)c3cc4c(cc3C2=O)CN(CC2(F)CCN(CC3CN(c5ccc([C@@H]6c7ccc(O)cc7CC[C@@H]6c6ccccc6)cc5)C3)CC2)C4)C(=O)N1` (stereo partly drawn) [Compound B63, 2-(2,6-dioxopiperidin-3-yl)-6-((4-fluoro-1-((1-(4-((1R,2S)-6-hydroxy-2-phenyl-1,2,3,4-tetrahydronaphthalen-1-yl)phenyl)azetidin-3-yl)methyl)piperidin-4-yl)methyl)-6,7-dihydropyrrolo[3,4-f]isoindole-1,3(2H,5H)-dione], for which the DC50 was above 100 nM.
Consider `O=C1CCC(N2C(=O)c3cc4c(cc3C2=O)CN(CC(=O)N2CC3(CCC(Oc5ccc([C@@H]6c7ccc(O)cc7CC[C@@H]6c6ccccc6)cc5)CC3)C2)C4)C(=O)N1` (stereo partly drawn) [Compound B278, 2-(2,6-dioxopiperidin-3-yl)-6-(2-(7-(4-((1R,2S)-6-hydroxy-2-phenyl-1,2,3,4-tetrahydronaphthalen-1-yl)phenoxy)-2-azaspiro[3.5]nonan-2-yl)-2-oxoethyl)-6,7-dihydropyrrolo[3,4-f]isoindole-1,3(2H,5H)-dione], for which the 50% degradation concentration (DC50) was above 100 nM.
Turning to `O=C1CCC(N2Cc3cc4c(cc3C2=O)CN(C(=O)CN2CCC3(CC2)CCN(c2ccc([C@@H]5c6ccc(O)cc6CC[C@@H]5c5ccccc5)cc2)CC3)C4)C(=O)N1` (stereo partly drawn) [Compound B105, 3-(6-(2-(9-(4-((1R,2S)-6-hydroxy-2-phenyl-1,2,3,4-tetrahydronaphthalen-1-yl)phenyl)-3,9-diazaspiro[5.5]undecan-3-yl)acetyl)-1-oxo-3,5,6,7-tetrahydropyrrolo[3,4-f]isoindol-2(1H)-yl)piperidine-2,6-dione], the DC50 was below 10 nM.
As to `O=C1CCC(N2C(=O)c3cc4c(cc3C2=O)CN(C(=O)C2CCN(CC3CN(c5ccc([C@@H]6c7ccc(O)cc7CC[C@@H]6c6ccccc6)cc5)C3)CC2)C4)C(=O)N1` (stereo partly drawn) [Compound B79, 2-(2,6-dioxopiperidin-3-yl)-6-(1-((1-(4-((1R,2S)-6-hydroxy-2-phenyl-1,2,3,4-tetrahydronaphthalen-1-yl)phenyl)azetidin-3-yl)methyl)piperidine-4-carbonyl)-6,7-dihydropyrrolo[3,4-f]isoindole-1,3(2H,5H)-dione], the 50% degradation concentration (DC50) is above 100 nM.
Regarding `CN(c1ccc([C@@H]2c3ccc(O)cc3CC[C@@H]2c2ccccc2)cc1)C1CN(C[C@H]2CC[C@H](C(=O)N3Cc4cc5c(cc4C3)C(=O)N(C3CCC(=O)NC3=O)C5=O)CC2)C1` (stereo partly drawn) [Compound B132, 2-(2,6-dioxopiperidin-3-yl)-6-((1R,4r)-4-((3-((4-((1R,2S)-6-hydroxy-2-phenyl-1,2,3,4-tetrahydronaphthalen-1-yl)phcnyl)(mcthyl)amino)azctidin-1-yl)mcthyl)cyclohexanc-1-carbonyl)-6,7-dihydropyrrolo[3,4-f]isoindole-1,3(2H,5H)-dione], the DC50 is above 100 nM.
Turning to `O=C1CCC(N2C(=O)c3cc4c(cc3C2=O)CN(CCN2CC3(CCN(c5ccc([C@@H]6c7ccc(O)cc7CC[C@@H]6c6ccccc6)cc5)CC3)C2)C4)C(=O)N1` (mixture of isomers) [Compound B197, 2-(2,6-dioxopiperidin-3-yl)-6-(2-(7-(4-((1R,2S)-6-hydroxy-2-phenyl-1,2,3,4-tetrahydronaphthalen-1-yl)phenyl)-2,7-diazaspiro[3.5]nonan-2-yl)ethyl)-6,7-dihydropyrrolo[3,4-f]isoindole-1,3(2H,5H)-dione], the DC50 lay within 10 to 100 nM.
Consider `CN(c1ccc([C@@H]2c3ccc(O)cc3CC[C@@H]2c2ccccc2)cc1)C1CN([C@H]2CC[C@@H](C(=O)N3Cc4cc5c(cc4C3)C(=O)N(C3CCC(=O)NC3=O)C5=O)CC2)C1` (stereo partly drawn) [Compound B131, 2-(2,6-dioxopiperidin-3-yl)-6-((1S,4s)-4-(3-((4-((1R,2S)-6-hydroxy-2-phenyl-1,2,3,4-tetrahydronaphthalen-1-yl)phenyl)(methyl)amino)azetidin-1-yl)cyclohexane-1-carbonyl)-6,7-dihydropyrrolo[3,4-f]isoindole-1,3(2H,5H)-dione], for which the DC50 was above 100 nM.
Then `O=C1CCC(N2Cc3cc4c(cc3C2=O)NC(=O)[C@@H]2CN(CC3CCN(c5ccc([C@@H]6c7ccc(O)cc7CC[C@@H]6c6ccccc6)cc5)CC3)CCN42)C(=O)N1` (stereo partly drawn) [Compound B134, (4aS)-9-(2,6-dioxopiperidin-3-yl)-3-((1-(4-((1R,2S)-6-hydroxy-2-phenyl-1,2,3,4-tetrahydronaphthalen-1-yl)phenyl)piperidin-4-yl)methyl)-2,3,4,4a,9,10-hexahydropyrazino[1,2-a]pyrrolo[3,4-g]quinoxaline-5,8(1H,6H)-dione], with above 100 nM; and `O=C1CCC(N2C(=O)c3cc4c(cc3C2=O)CN(CC(=O)N2CCC3(CCN(c5ccc([C@@H]6c7ccc(O)cc7CC[C@@H]6c6ccccc6)cc5)CC3)C2)C4)C(=O)N1` (mixture of isomers) [Compound B185, 2-(2,6-dioxopiperidin-3-yl)-6-(2-(8-(4-((1R,2S)-6-hydroxy-2-phenyl-1,2,3,4-tetrahydronaphthalen-1-yl)phenyl)-2,8-diazaspiro[4.5]decan-2-yl)-2-oxoethyl)-6,7-dihydropyrrolo[3,4-f]isoindole-1,3(2H,5H)-dione], with 10 to 100 nM.
Regarding `O=C1CCC(N2Cc3cc4c(cc3C2=O)CN(C2CCN(CC3CN(c5ccc([C@@H]6c7ccc(O)cc7CC[C@@H]6c6ccc(F)cc6)cc5)C3)CC2)C4)C(=O)N1` (stereo partly drawn) [Compound B72, 3-(6-(1-((1-(4-((1R,2S)-2-(4-fluorophenyl)-6-hydroxy-1,2,3,4-tetrahydronaphthalen-1-yl)phenyl)azetidin-3-yl)methyl)piperidin-4-yl)-1-oxo-3,5,6,7-tetrahydropyrrolo[3,4-f]isoindol-2(1H)-yl)pipcridinc-2,6-dionc], the DC50 was 10 to 100 nM.
Turning to `C[C@@H]1CC2(CCN(c3ccc([C@@H]4c5ccc(O)cc5CC[C@@H]4c4ccc(F)cc4)cc3)CC2)CN1C(=O)CN1Cc2cc3c(cc2C1)C(=O)N(C1CCC(=O)NC1=O)C3=O` (mixture of isomers) [Compound B26, 2-(2,6-dioxopiperidin-3-yl)-6-(2-((R)-8-(4-((1R,2S)-2-(4-fluorophenyl)-6-hydroxy-1,2,3,4-tetrahydronaphthalen-1-yl)phenyl)-3-methyl-2,8-diazaspiro[4.5]decan-2-yl)-2-oxoethyl)-6,7-dihydropyrrolo[3,4-f]isoindole-1,3(2H,5H)-dione], the 50% degradation concentration (DC50) is 10 to 100 nM.
With `O=C1CCC(N2C(=O)c3cc4c(cc3C2=O)CN(CC2CN(C(=O)C3CN(c5ccc([C@@H]6c7ccc(O)cc7CC[C@@H]6c6ccccc6)cc5)C3)C2)C4)C(=O)N1` (stereo partly drawn) [Compound B263, 2-(2,6-dioxopiperidin-3-yl)-6-((1-(1-(4-((1R,2S)-6-hydroxy-2-phenyl-1,2,3,4-tetrahydronaphthalen-1-yl)phenyl)azetidine-3-carbonyl)azetidin-3-yl)methyl)-6,7-dihydropyrrolo[3,4-f]isoindole-1,3(2H,5H)-dione], the DC50 was above 100 nM.

These data come from patent US20260028354A1, “TETRAHYDRONAPHTHALENE DERIVATIVES AS ESTROGEN RECEPTOR DEGRADERS” (REGENT OF THE UNIVERSITY OF MICHIGAN, priority 2022, published 2026).
